# Experimental data published in ChEMBL document CHEMBL5465560, “Selectivity Literature for EUbOPEN Chemogenomic Library” (2024).
# Assays:
# [1] = biological target: Microtubule-associated serine/threonine-protein kinase 1 (Homo sapiens) (UniProt Q9Y2H9); test: Selectivity interaction (KinomeScan (DiscoverX)) EUB0000695a MAST1; conditions: at 100 nM
# [2] = biological target: Serine/threonine-protein kinase WNK4 (Homo sapiens) (UniProt Q96J92); test: Selectivity interaction (KinomeScan (DiscoverX)) EUB0001079a WNK4; conditions: at 1 µM
# [3] = biological target: Cannabinoid receptor 2 (Homo sapiens) (UniProt P34972); test: Selectivity interaction (Eurofins CEREP Diversity Profile (receptors and ion channels)) EUB0000279b CNR2; conditions: at 10 µM
# [4] = biological target: T1, Serine/threonine-protein kinase 3 (Homo sapiens) (UniProt Q13188); test: Selectivity interaction (Millipore kinase profiler) EUB0000124b STK3; conditions: at 10 µM
# T1 sequence (whole entry): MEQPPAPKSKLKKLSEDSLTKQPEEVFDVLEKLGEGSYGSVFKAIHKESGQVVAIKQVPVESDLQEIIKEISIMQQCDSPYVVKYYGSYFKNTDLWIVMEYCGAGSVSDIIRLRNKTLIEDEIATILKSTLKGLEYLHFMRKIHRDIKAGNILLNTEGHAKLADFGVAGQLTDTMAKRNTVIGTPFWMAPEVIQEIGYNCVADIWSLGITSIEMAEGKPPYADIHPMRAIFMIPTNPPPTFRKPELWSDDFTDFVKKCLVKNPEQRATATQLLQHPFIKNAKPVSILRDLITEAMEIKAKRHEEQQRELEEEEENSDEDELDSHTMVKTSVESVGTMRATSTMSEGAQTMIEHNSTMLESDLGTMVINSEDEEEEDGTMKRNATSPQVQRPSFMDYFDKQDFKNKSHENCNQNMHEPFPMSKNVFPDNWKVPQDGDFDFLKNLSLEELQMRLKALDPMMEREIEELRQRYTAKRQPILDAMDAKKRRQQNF
# [5] = biological target: MAP kinase-activated protein kinase 5 (Homo sapiens, UniProt Q8IW41); test: Selectivity interaction (Kinase panel (33PanQinase(R) Activity Assay)) EUB0000877a MAPKAPK5
# [6] = biological target: Tyrosine-protein kinase JAK1 (Homo sapiens, UniProt P23458); test: Selectivity interaction (ActivX KiNativ screen (ex vivo kinase selectivity in human PBMCs)) EUB0001619a JAK1; format: cell-based; conditions: PBMC, at 1 µM
# [7] = biological target: T2, Mitogen-activated protein kinase kinase kinase kinase 3 (Homo sapiens) (UniProt Q8IVH8); test: Selectivity interaction (KinomeScan (DiscoverX)) EUB0000607a MAP4K3; conditions: at 10 µM
# T2 sequence (whole entry): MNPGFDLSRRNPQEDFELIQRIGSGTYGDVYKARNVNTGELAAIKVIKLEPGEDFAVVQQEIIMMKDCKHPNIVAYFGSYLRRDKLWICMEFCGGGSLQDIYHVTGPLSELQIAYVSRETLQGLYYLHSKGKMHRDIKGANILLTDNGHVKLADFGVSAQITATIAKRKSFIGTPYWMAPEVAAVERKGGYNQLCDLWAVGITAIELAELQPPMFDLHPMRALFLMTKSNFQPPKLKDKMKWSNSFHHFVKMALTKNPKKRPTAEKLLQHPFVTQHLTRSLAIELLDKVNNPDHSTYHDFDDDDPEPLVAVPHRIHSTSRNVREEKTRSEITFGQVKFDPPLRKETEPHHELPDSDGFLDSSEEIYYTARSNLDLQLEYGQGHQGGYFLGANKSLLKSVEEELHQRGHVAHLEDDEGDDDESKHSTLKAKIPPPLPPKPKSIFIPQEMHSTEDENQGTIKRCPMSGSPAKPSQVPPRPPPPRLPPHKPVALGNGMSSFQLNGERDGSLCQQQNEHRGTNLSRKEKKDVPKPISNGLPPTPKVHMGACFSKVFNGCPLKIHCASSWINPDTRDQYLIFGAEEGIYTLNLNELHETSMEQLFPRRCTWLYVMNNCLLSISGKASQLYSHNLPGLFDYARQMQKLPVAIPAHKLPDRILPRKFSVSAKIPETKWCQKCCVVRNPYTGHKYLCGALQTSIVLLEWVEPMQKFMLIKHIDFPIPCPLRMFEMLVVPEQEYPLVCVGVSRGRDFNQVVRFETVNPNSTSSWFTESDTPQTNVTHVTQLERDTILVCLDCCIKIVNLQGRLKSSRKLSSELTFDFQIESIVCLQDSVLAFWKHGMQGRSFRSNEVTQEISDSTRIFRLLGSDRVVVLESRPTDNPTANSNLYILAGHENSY
# [8] = biological target: Tyrosine-protein kinase ABL1 (Homo sapiens, UniProt P00519); test: Selectivity interaction (KinomeScan (DiscoverX)) EUB0000618a ABL1; conditions: at 10 µM
# [9] = biological target: Phosphatidylinositol 4-kinase beta (Homo sapiens, UniProt Q9UBF8); test: Selectivity interaction (ActivX KiNativ screen (kinase selectivity in THP-1 cell lysates)) EUB0000639a PI4KB; format: subcellular; conditions: lysate, at 0.2 µM
# [10] = biological target: Glycogen synthase kinase-3 alpha (Homo sapiens, UniProt P49840); test: Selectivity interaction (KinomeScan (DiscoverX)) EUB0000655a GSK3A; conditions: at 10 µM
# [11] = biological target: T3, Receptor-interacting serine/threonine-protein kinase 4 (Homo sapiens) (UniProt P57078); test: Selectivity interaction (KinomeScan (DiscoverX)) EUB0000655a RIPK4; conditions: at 10 µM
# T3 sequence (whole entry): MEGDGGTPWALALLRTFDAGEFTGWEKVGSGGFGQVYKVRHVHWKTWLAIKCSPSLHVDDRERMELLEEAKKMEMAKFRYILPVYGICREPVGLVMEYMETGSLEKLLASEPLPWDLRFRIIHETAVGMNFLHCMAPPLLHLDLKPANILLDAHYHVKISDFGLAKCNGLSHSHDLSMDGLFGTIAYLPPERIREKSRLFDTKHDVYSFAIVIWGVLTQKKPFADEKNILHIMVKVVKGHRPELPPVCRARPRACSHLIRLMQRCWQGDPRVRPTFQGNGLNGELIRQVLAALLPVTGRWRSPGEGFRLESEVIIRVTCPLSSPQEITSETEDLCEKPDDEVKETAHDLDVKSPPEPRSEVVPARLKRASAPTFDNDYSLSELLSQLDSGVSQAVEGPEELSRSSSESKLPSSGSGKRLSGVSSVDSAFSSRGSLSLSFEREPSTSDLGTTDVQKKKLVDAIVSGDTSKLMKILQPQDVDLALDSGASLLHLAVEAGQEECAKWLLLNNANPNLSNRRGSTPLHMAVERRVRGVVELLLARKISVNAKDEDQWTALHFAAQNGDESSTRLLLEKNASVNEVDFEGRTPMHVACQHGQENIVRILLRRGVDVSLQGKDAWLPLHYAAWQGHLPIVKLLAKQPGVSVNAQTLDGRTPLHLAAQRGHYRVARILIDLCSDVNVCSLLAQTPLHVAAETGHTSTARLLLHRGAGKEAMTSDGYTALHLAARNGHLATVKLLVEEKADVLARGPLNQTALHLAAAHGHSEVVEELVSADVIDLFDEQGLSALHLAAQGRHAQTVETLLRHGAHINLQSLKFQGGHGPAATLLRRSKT
# Chain of Serine/threonine-protein kinase WNK4 (Homo sapiens) (Q96J92 whole entry): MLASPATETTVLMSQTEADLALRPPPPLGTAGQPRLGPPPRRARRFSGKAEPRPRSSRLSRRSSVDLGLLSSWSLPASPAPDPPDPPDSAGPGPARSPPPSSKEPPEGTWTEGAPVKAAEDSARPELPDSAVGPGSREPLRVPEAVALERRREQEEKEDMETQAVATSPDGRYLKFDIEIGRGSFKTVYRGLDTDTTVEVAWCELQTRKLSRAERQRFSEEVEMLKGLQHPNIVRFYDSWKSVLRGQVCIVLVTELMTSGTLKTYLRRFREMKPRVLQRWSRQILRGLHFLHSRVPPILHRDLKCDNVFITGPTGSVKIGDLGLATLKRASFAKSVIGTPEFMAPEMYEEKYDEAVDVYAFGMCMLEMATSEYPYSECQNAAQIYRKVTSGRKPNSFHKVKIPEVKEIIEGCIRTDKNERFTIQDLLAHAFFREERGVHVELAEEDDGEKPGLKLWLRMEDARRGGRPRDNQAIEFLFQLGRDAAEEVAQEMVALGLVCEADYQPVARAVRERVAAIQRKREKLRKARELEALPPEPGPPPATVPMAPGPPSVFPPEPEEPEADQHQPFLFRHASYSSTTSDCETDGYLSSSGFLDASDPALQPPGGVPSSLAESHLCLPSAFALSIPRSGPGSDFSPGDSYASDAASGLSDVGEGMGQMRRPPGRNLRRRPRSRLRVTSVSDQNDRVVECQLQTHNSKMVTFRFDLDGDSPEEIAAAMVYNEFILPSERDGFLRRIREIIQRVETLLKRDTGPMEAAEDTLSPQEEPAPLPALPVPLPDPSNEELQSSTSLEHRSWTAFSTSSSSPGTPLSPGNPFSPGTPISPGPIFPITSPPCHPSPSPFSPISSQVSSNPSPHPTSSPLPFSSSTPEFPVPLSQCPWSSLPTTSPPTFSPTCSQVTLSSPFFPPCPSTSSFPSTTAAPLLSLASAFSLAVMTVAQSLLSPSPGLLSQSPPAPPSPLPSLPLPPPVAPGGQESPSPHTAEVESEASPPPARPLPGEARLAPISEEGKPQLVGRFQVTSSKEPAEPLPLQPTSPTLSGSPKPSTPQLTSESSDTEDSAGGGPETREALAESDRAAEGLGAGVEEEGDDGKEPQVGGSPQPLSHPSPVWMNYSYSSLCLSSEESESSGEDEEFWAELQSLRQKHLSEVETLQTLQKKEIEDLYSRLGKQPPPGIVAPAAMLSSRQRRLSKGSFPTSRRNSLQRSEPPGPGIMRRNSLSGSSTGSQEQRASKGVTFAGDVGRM
# Chain of Tyrosine-protein kinase ABL1 (P00519 whole entry): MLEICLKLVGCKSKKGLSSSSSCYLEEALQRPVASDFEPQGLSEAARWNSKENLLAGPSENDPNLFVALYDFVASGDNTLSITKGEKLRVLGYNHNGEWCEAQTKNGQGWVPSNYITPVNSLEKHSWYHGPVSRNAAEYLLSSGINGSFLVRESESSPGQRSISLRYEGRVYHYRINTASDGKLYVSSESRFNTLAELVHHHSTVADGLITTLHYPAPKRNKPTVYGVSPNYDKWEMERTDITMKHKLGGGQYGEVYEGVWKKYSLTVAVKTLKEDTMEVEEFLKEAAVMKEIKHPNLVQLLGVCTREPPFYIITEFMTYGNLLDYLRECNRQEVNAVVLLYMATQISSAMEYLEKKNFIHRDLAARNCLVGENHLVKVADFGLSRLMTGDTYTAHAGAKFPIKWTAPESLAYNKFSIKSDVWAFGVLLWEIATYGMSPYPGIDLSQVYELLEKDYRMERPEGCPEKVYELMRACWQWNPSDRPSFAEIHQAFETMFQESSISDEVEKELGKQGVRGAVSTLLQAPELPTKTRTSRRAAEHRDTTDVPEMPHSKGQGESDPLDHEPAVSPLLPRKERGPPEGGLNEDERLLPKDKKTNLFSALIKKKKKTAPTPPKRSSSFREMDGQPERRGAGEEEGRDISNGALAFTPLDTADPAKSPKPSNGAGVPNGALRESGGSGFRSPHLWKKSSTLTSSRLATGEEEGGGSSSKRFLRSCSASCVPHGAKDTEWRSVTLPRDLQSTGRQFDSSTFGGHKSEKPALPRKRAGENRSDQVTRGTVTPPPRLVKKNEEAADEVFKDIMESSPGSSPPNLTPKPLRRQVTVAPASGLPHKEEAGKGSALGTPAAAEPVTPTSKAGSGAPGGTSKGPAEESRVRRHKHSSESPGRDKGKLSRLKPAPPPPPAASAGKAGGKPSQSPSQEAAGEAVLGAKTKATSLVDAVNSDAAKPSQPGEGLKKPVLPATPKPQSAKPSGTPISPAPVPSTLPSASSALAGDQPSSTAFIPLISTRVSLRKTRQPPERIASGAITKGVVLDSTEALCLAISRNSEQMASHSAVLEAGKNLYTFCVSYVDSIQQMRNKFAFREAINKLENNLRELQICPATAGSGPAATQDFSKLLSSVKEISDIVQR
# Chain of Phosphatidylinositol 4-kinase beta (Q9UBF8 2-816 limits assumed): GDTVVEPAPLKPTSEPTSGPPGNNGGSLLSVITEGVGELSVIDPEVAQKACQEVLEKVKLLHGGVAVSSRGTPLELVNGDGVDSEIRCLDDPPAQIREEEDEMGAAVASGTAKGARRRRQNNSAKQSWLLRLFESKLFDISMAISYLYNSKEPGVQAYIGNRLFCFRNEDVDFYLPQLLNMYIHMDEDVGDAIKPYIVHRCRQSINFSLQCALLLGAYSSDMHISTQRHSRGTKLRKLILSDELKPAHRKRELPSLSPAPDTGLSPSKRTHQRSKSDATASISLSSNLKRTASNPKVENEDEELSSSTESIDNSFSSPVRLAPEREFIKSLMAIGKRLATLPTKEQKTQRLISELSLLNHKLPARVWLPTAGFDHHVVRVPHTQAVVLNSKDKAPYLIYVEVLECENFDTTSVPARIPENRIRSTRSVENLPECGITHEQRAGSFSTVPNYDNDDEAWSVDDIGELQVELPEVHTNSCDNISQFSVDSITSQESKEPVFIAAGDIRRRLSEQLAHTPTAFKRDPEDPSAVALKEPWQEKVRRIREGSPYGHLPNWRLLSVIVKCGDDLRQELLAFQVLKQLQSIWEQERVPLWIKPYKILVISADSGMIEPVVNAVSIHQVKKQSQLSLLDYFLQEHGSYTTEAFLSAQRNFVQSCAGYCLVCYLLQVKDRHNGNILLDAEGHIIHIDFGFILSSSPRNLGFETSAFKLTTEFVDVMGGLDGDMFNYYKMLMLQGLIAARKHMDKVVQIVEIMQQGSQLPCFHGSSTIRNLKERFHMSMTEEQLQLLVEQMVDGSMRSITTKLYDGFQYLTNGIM
# Chain of Glycogen synthase kinase-3 alpha (P49840 2-483 limits assumed): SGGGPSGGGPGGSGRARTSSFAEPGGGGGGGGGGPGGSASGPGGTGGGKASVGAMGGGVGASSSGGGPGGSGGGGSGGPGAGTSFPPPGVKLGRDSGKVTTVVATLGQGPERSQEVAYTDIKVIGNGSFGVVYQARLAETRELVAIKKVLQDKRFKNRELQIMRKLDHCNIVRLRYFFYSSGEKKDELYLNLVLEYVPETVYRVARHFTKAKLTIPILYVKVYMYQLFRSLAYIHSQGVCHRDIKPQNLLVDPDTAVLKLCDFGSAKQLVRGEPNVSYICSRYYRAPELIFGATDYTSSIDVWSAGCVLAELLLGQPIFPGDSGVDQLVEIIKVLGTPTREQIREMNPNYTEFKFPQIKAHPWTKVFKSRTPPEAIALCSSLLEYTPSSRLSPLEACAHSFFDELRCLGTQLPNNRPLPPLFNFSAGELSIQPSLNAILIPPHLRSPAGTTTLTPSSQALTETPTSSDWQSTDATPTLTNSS
# Chain of Cannabinoid receptor 2 (Homo sapiens) (P34972 whole entry): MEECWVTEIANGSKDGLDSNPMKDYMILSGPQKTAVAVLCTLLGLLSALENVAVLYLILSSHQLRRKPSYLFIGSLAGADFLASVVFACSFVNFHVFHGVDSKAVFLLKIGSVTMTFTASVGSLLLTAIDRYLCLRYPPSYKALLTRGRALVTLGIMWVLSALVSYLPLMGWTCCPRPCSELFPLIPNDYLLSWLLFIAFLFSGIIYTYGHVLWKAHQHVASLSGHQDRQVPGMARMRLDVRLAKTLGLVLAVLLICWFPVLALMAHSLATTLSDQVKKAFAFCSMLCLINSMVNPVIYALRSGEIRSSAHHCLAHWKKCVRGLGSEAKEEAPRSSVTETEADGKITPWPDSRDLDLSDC
# Chain of MAP kinase-activated protein kinase 5 (Q8IW41 whole entry): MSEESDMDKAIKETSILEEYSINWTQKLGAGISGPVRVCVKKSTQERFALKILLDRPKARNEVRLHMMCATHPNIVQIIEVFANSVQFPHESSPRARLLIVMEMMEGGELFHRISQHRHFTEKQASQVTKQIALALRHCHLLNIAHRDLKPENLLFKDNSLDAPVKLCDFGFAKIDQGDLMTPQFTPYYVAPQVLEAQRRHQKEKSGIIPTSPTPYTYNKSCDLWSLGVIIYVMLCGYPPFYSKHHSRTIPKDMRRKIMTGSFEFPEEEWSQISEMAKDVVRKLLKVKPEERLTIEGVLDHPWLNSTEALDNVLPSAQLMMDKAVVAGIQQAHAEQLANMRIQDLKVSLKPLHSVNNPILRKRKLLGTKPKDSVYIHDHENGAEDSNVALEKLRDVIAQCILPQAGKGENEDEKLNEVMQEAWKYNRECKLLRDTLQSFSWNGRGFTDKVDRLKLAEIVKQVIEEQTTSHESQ
smiles,measurement,setting,value
Cc1cc(F)c(C(=O)Nc2cccc(-c3nncn3C(C)C)n2)cc1-n1cnc(C2CC2)c1,% of control,[1],87%
Nc1cnc(N2CCc3cc(S(=O)(=O)Nc4c(F)cc(Cl)cc4F)cc(N4CCCC4=O)c32)nc1 [TP-020n],% of control,[2],100%
CC(=O)c1cc(-c2ccccc2OCC2CC2)c2ncccn12,% of control,[3],107%
CC(=O)Nc1cccc(-n2c(=O)n(C3CC3)c(=O)c3c(Nc4ccc(I)cc4F)n(C)c(=O)c(C)c32)c1,% of control,[4],94%
CCC(=O)N1CC[C@H](Nc2ncnc3c2CN(c2cnc(OC)c(C(F)(F)F)c2)CC3)C1 [LENIOLISIB],IC50,[5],> 10 µM
N#Cc1cccc(-c2c[nH]c3ncnc(N4CCOCC4)c23)c1,% of inhibition,[6],19%
CNC(=O)Nc1ccc(-c2nc(N3CC4CCC(C3)O4)c3cnn(C4CCC5(CC4)OCCO5)c3n2)cc1,% of control,[7],94%
O[C@H]1CC[C@H](Nc2ncc3nc(Nc4c(F)cc(F)cc4F)n([C@H]4CCOC4)c3n2)CC1,% of control,[8],34%
CC[C@@H]1[C@H](F)C(=O)N[C@@H]1COc1nccc2cc(C(N)=O)c(OC)cc12 [ZIMLOVISERTIB],% of inhibition,[9],-16.4%
CN(C)CCOc1ccc(-c2nc(-c3ccncc3)c(-c3ccc4c(c3)CC/C4=N\O)[nH]2)cc1,% of control,[10],100%
same,% of control,[11],100%
